From the METLIN SMRT retention time set (Domingo-Almenara et al. 2019)

Experiment: gradient 5% acetonitrile 3 min, to 50% in 2 min, to 85% in 15 min, held 3 min, 100 µL/min
Conditions: column: Zorbax Extend-C18 2.1 x 50 mm; eluents: water / acetonitrile, 0.1% formic acid
How it was run: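 Retention times of pure standards were taken from adduct peaks that were selected by computer and manually inspected. Over 3 months, mixtures of ~100 molecules were run by HPLC–quadrupole time-of-flight mass spectrometry in positive and negative ionization mode. The Zorbax Extend-C18 column (2.1 × 50 mm, 1.8 μm) ran at 100 μL/min in water and acetonitrile, each containing 0.1% formic acid, with 40 μL dead volume and 900 μL dwell volume.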

RP-LC retention time	SMILES
752 s	CCN1C(=O)CC[C@]2(CN(C)C(=O)Cc3cccc(F)c3)CCC[C@@H]12
787 s	CCN(CC)C(=O)c1ccc2c(c1)N(CC(=O)N(C)Cc1ccccc1)C(=O)CS2
1250 s	Cc1ccc(Cl)cc1N1CCN(c2ncc(S(=O)(=O)c3ccccc3)c(N)n2)CC1
797 s	CCn1nc(C)c(S(=O)(=O)N2CCN(C(=O)C3(c4ccc(OC)cc4)CC3)CC2)c1C
757 s	COc1ccccc1CNC(=O)C1CCCN1S(=O)(=O)c1cc2c(cc1C)NC(=O)C(C)O2 (stereo not drawn)
854 s	Cc1cc(N2C=C(C(=O)N3CCCC3)S(=O)(=O)c3ccc(F)cc32)ccc1F
770 s	CCc1ccc(NC(=O)C2(C)Oc3cccnc3NC2=O)cc1 (stereo not drawn)
901 s	CC(C)C(=O)N1CCc2ccc(NC(=O)c3ccc(Cl)c(Cl)c3)cc2C1
755 s	O=C(CCn1c(N2CCCC2)nc2ccsc2c1=O)NCc1ccc(F)cc1
1040 s	CC(C)n1c(=O)sc2cc(S(=O)(=O)N3CCC(C(=O)NC4CCCCCCC4)CC3)ccc21
550 s	CCN1CCN(C(=O)c2nc(N(CC)CC)c3c(C)cc(C)nc3n2)CC1
648 s	CCCNC(=O)N1CCC(c2noc(-c3ccccn3)n2)C1 (stereo not drawn)
1060 s	Cc1ccc(CN(C(=O)c2ccc(OCC(C)C)cc2)C2CCS(=O)(=O)C2)o1 (stereo not drawn)
758 s	CCOc1ccc(C(=O)N2C[C@@H]3C[C@H]2C[C@@H]3NC(=O)c2cccs2)cc1
834 s	Cc1ccc(N2C(=O)CN(S(C)(=O)=O)CC2(C)C(=O)NCc2ccc(F)cc2)c(C)c1 (stereo not drawn)
719 s	COc1ccc(-c2ncccc2CNS(=O)(=O)c2c(C)cccc2Cl)cc1
1040 s	Cc1cc(C)c(C)c(S(=O)(=O)NC2CCN(c3ccc(=O)n(CC4CC4)n3)CC2)c1C
925 s	CCc1cccc(NC(=O)N2CCCC2c2nc(-c3ccc(OC)cc3)no2)c1 (stereo not drawn)

RP-LC retention time	SMILES
728 s	CCOC(=O)CNC(=O)N1CCCC1c1ccc(OC)cc1 (stereo not drawn)
683 s	CCCCOc1ccc(CNC(=O)CCc2ccc3nc(CC)[nH]c3c2)cc1
790 s	CCOC(=O)c1c(C)[nH]c(C(=O)N2CCCC(C(=O)NCc3ccccc3F)C2)c1C (stereo not drawn)
686 s	CC(=O)Nc1ccc(NC(=O)C2CCN(S(=O)(=O)c3ccc4c(c3)sc(=O)n4C)CC2)cc1
1090 s	CCNS(=O)(=O)c1cccnc1Nc1ccc(Cl)c(F)c1
1090 s	CCCc1ccc(S(=O)(=O)N2CCc3c(c(-c4nnc(-c5ccccc5)o4)nn3C)C2)cc1
864 s	Cc1oc(C2CCN(S(=O)(=O)c3cccc(Cl)c3)CC2)nc1C(=O)N(C)C
916 s	CC(C)Cn1cc(S(=O)(=O)Nc2cccc(C#N)c2)c2cccnc21
646 s	CC(C)Cn1c(=O)c(N2CCN(C(=O)c3nccc4ccccc34)CC2)nc2ccncc21
710 s	Cc1ccc(S(=O)(=O)N2C[C@@H](F)C[C@H]2C(=O)N2CCOCC2)cc1F
1070 s	CCCn1cc(C(=O)Nc2cccc(F)c2)c(S(=O)(=O)N2CCSCC2)n1
911 s	CC1(C)C(=O)N(CC(=O)N2CCN(c3ccc(F)cc3)CC2)c2ccccc21
814 s	Cc1ccc(NC(=O)N2CCC3(C2)C(=O)N(C)c2ccccc23)cc1 (stereo not drawn)
1050 s	Cc1nn(-c2ccccc2)c(C)c1S(=O)(=O)N1CCC(C(=O)Nc2ccc(F)c(Cl)c2)CC1
832 s	Cc1nn(CC(=O)N2CCC(Cc3ccccc3)CC2)c(=O)c2noc(C)c12
645 s	CCOc1ccc(CC(=O)N2C[C@@H]3C[C@H](NC(=O)c4cccnc4)[C@H]2C3)cc1
670 s	CCOC(=O)CSc1nc2ccccc2n1C
623 s	CCOc1ccc(S(=O)(=O)N(CC)CC(=O)N2CCNCC2)cc1

Second part, the compound before the results:

SMILES	RP-LC retention time
COc1ccc(-c2cc(C(F)(F)F)n3nc(C(=O)O)cc3n2)cc1	851 s
Cc1nc2nc(-c3ccc(Cl)cc3)nn2c(C)c1CC(=O)NC(C)C	790 s
O=C(C1CCC1)N1CCCC1c1nc(-c2cccc(Cl)c2)no1 (stereo not drawn)	1060 s
O=C(NCC1CC1)c1c(O)c2cccnc2n(Cc2ccccc2)c1=O	1310 s
O=C(NC1CC1)[C@@H]1C[C@H](Oc2cccnc2)CN1C(=O)c1ccoc1	546 s
COCc1nnc(C(=O)Nc2ccc(C(=O)NCCc3c[nH]c4ccc(C)cc34)cc2)s1	844 s
COc1ccc(-c2cn3c(CC(=O)Nc4cccc(C#N)c4)csc3n2)cc1	756 s
O=C(NC1(c2nc(-c3ccccn3)no2)CCCCC1)c1ccccc1	848 s
O=C(c1ccsc1)N1CCN(c2nnc3ccc(Cl)cn23)CC1	615 s
CS(=O)(=O)N1CCCc2ccc(NS(=O)(=O)CCN3C(=O)CCCC3=O)cc21	622 s
Cc1noc(-c2cccc(OC3CN(C(=O)NC(C)C)C3)c2)n1	760 s
COc1cccc(CN2C[C@@H](CO)[C@H](c3nc(C4CC4)no3)C2)n1	618 s
Cc1ccc(NC(=O)C2CCCN(c3ncnc4c3oc3ccccc34)C2)cc1C (stereo not drawn)	868 s
CN(C)S(=O)(=O)c1cccc(-c2nnc(-c3ccccc3Br)o2)c1	947 s
COc1ccc(C2CC(=O)Nc3c(C(=O)O)cn(-c4cccc(C(F)(F)F)c4)c32)cc1OC (stereo not drawn)	780 s
NC(=O)[C@H](Cc1ccccc1)NC(=O)[C@H](Cc1ccccc1)NC(=O)[C@@H]1CCCN1C(=O)[C@@H](N)Cc1ccc(O)cc1	678 s
Cc1cc(N2CCCC2)nc(N2CCN(C(=O)c3ccc(C(C)(C)C)cc3)CC2)n1	813 s
O=C(NC1CCCCCC1)C1CCCN(c2nc3ccccc3n(Cc3ccccc3)c2=O)C1 (stereo not drawn)	1290 s
Cc1ccc(CNC(=O)c2ccc3c(c2)N(C)C(=O)c2ccccc2O3)cc1	931 s
Cc1ccc(-c2nc(-c3ccc4nnn(C)c4c3)no2)cc1C	1170 s
COc1ccc2[nH]cc(CCNC(=O)CN3C(=O)c4cccnc4Sc4ccccc43)c2c1	734 s
CC(C)CN1C(=O)c2cccn2CC1C(=O)NCc1cccs1 (stereo not drawn)	754 s
CC(C)CCNC(=O)Cc1cn(C)c2ncccc12	679 s
CC(NC(=O)c1cc(-c2ccccc2)cn1C)c1cccnc1 (stereo not drawn)	662 s
Cc1nc(C)c(C(=O)N2CC(Oc3ccc(-c4nc(-c5ccccc5)no4)cc3)C2)s1	1130 s
O=C(Cc1cccs1)Nc1nnc(SCc2nnc(-c3ccc4c(c3)OCO4)o2)s1	814 s

SMILES	RP-LC retention time
Cc1ccc(-c2cc(C(N)=O)[nH]n2)c(C)c1	668 s
O=C(NCCn1c(-c2ccc(F)cc2)nc2cccnc21)NCc1ccccc1	684 s
CC(C)Oc1ccc(-c2noc(Cn3nc(-c4ccccc4)ccc3=O)n2)cc1	732 s
O=C(Nc1ccc(Br)cc1F)C1CCN(C(=O)c2cc(-c3ccncc3)n[nH]2)CC1	632 s
COc1ncc(C(=O)NCc2ccccc2Cl)cn1	737 s
Cc1c(-c2noc(-c3ccc4cc[nH]c4c3)n2)nnn1Cc1cccc(F)c1	996 s
CCC(=O)Nc1cnc2c(c1)CCC2	491 s
COc1ccc(OC)c(CNC(=O)CCc2c(C)nn(-c3cc(N(C)C)ncn3)c2C)c1	726 s
O=C(CSc1nnc(-c2cccnc2)o1)c1cccc([N+](=O)[O-])c1	724 s
COc1cccc(-c2noc(Cn3ccn(-c4cc(C)ccc4C)c(=O)c3=O)n2)c1	911 s
CC(C)c1cc(C(=O)NC2CCCCCC2)nc2ccnn12	1170 s
Cc1ccc(NC(=O)N2CCCC2c2nncn2C2CCCC2)cc1F (stereo not drawn)	728 s
CCOc1ccc(-c2nc3ncccn3c2NCc2ccccc2)cc1OC	697 s
O=C(NCc1cccc(Br)c1)C(=O)c1ccc[nH]1	874 s
Brc1ccc(-c2nc(-c3ccn4cnnc4c3)no2)cc1	929 s
COc1ccc(-c2nc3ncccn3c2Nc2cccc(Cl)c2C)cc1	845 s
Cn1ccc2c(cc(C(=O)NCc3cc(F)cc(F)c3)n2C)c1=O	701 s
CC(NC(=O)c1cn2c(n1)CSCC2)c1ccc(F)cc1 (stereo not drawn)	638 s
Cc1cc(OCC(=O)Nc2c(C)cccc2C)nc(N2CCN(c3ccccc3)CC2)n1	861 s
Cc1nnsc1C(=O)Nc1ccc2c(c1)OCC(C)(C)C(=O)N2C	605 s
COc1ccc(N2CC(c3noc(-c4cc(F)ccc4F)n3)CC2=O)cc1 (stereo not drawn)	849 s
Cc1ccc2oc(-c3noc(C(=O)NCCN4CCC(C)CC4)n3)c(C)c2c1	759 s
COc1ccc(CC(=O)N2CCCC2c2cc(C(C)C)on2)cc1OC (stereo not drawn)	800 s
O=S(=O)(c1cc(-c2nnc(C3CCC3)o2)co1)N1CCN(c2ccccn2)CC1	671 s
COc1ccc2c(C)c(CCC(=O)N[C@@H](C(=O)O)C(C)C)c(=O)oc2c1C	746 s
O=C(CN1C(=O)CSc2ccc(C(=O)N3CCCCC3)cc21)NC1CCCCCC1	839 s
